Measurements taken from patent publication US10537535B2, “Histone deacetylase inhibitors” (The Regents of the University of California, priority 2015, dated 2020).

What was measured:
[1] = biological target: T1, human HDAC8 (Homo sapiens, UniProt Q9BY41); experiment: Fluorometric HDAC activity assay, purified human HDAC8; format: biochemical; settings: purified human HDAC8, n=4-5
T1 construct: purchased BPS Bioscience 50068
T1 sequence (Q9BY41 1-377): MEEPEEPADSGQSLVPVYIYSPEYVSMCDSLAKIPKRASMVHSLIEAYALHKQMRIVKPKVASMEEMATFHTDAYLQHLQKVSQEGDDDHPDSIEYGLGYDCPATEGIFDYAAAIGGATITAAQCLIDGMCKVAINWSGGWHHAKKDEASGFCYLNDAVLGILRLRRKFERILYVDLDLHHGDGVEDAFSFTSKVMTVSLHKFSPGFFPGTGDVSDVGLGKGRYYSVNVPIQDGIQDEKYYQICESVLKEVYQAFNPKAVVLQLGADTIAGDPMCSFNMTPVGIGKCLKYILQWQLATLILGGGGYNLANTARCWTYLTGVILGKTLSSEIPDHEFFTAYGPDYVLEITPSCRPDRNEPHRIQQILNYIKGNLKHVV
Description: In order to directly test whether diacetyl acts as an inhibitor of HDACs, in vitro acetylation assays was performed with purified human HDACs. In this example, β-hydroxybutyrate (a naturally-occurring HDAC inhibitor secreted by the liver, targeting zinc-dependent HDACs) was used for comparison. HDAC activity of class I HDACs (HDAC1, 2, 3 and 8) was measured with the fluorometric HDAC Activity Assay kit: HDAC1 (10011563, Cayman Chemical, Ann Arbor, Mich.), HDAC2, HDAC 3 and HDAC 8 (50062, 50073 and 50068, BPS Bioscience, San Diego, Calif.), according to the manufacturer's instructions.

[2] = biological target: T2, human HDAC1 (Homo sapiens, UniProt Q13547); experiment: Fluorometric HDAC activity assay, purified human HDAC1; format: biochemical
T2 construct: purchased Cayman Chemical 10011563
T2 sequence (Q13547 whole entry): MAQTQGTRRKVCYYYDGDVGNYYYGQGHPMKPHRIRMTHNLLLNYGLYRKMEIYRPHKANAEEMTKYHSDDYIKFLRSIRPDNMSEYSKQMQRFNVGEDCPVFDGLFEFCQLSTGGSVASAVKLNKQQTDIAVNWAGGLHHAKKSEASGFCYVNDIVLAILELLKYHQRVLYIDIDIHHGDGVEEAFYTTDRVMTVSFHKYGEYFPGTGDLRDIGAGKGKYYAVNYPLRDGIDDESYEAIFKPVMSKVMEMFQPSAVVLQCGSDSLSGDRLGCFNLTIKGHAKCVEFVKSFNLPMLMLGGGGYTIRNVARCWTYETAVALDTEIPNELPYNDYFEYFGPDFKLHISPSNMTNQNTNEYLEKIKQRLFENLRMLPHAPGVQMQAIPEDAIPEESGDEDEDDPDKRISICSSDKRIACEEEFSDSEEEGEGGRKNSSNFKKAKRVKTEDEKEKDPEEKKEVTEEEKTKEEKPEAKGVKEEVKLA
Description: The ability of diacetyl (odor 1) to inhibit human HDAC activity was investigated using in-vitro assays with a human HDAC1 kit.
In order to directly test whether diacetyl acts as an inhibitor of HDACs, in vitro acetylation assays was performed with purified human HDACs. […]
HDAC activity of class I HDACs (HDAC1, 2, 3 and 8) was measured with the fluorometric HDAC Activity Assay kit: HDAC1 (10011563, Cayman Chemical, Ann Arbor, Mich.), HDAC2, HDAC 3 and HDAC 8 (50062, 50073 and 50068, BPS Bioscience, San Diego, Calif.), according to the manufacturer's instructions.

[3] = system: H3K14 acetylation in HEK293 cells; experiment: Western blot of histone acetylation in HEK293 nuclear extracts: H3K14; format: cell-based, human
Description: (§1) In order to test whether diacetyl can increase acetylation of histones in vivo, human HEK293 cells were used, which offer a tractable system to prepare nuclear extracts. The cells were exposed to different doses of diacetyl for 2 or 6 hours, and monitored histone acetylation levels by Western blot analysis from nuclear extract. […] The acetylation levels of H3K14 and H4K5 were not affected (FIG. 5A).
(§2) Human embryonic kidney 293 (HEK293) cells were grown in 100 mm cell culture dishes with Dulbecco's modified Eagle's medium (DMEM) (10-013, Corning, Manassas, Va.), supplemented with 10% fetal bovine serum (FBS) (26140-079, Gibco, Carlsbad, Calif.) at 37° C. with 5% CO2. Cells that were ˜80% confluent were treated with freshly-prepared medium supplemented with diacetyl at concentrations indicated. In order to prevent diffusion of diacetyl odor from the treatment dishes to the outside environment, the cell culture dishes were put into a custom-made container (155.6×155.6×85.7 mm) with a charcoal filter top. […]
(§3) Proteins in the nuclear extracts (60 μg protein) were separated by SDS-PAGE gels (456-1043, Bio-Rad, Hercules, Calif.), transferred onto PVDF membranes (162-0174, Bio-Rad), and incubated with anti-histone antibodies: acetylated H3K9 (1/2000: ab4441, abeam, Cambridge, Mass.), acetylated H3K14 (1/5000: 06-911, EMD Millipore, Billerica, Mass.), acetylated H4K5 (1/2000: 07-327, EMD Millipore). Bound antibody was detected by horseradish peroxidase-conjugated anti-rabbit secondary antibody (1/20000: 1705046, Bio-Rad) and developed using Clarity™ Western ECL Substrate (1705060, Bio-Rad). Signals were detected and captured by ImageQuant™ LAS 4000 mini (GE healthcare, Pittsburgh, Pa.), and band intensities were quantified with ImageJ software. H3K9 acetylation intensity in individual lanes was reported relative to the normalized Mock treatment (Mock H3K9ace/Mock PCNA), and calculated using this formula: Relative H3K9ace intensity for each timepoint=(Diacetyl H3K9ace/diacetyl PCNA)/(Mock H3K9ace/Mock PCNA).

[4] = system: H4K5 acetylation in HEK293 cells; experiment: Western blot of histone acetylation in HEK293 nuclear extracts: H4K5; format: cell-based, human
Description: as §1, §2, §3

For `CC(=O)C(C)=O` [diacetyl, 2,3-Butanedione], the IC50 [1] was 11.4 mM, the “inhibition of human HDAC activity (human HDAC1 kit)” value ([2]; compared with sodium butyrate, FIG. 1C) was “effective HDAC inhibitor and comparable to sodium butyrate” and the IC50 ([2]; purified human HDAC1, n=4-5) was 7.2 mM. The H3K14 acetylation level ([3]; 1 mM, 2 or 6 hours) was “did not alter”, the H3K14 acetylation level ([3]; 10 mM, 2 hours) was “not affected” and the H3K14 acetylation level ([3]; 10 mM, 6 hours) was “unaffected”. For the same molecule, the H4K5 acetylation level ([4]; 1 mM, 2 or 6 hours) was “did not alter”, the H4K5 acetylation level ([4]; 10 mM, 2 hours) was “not affected” and the H4K5 acetylation level ([4]; 10 mM, 6 hours) was “unaffected”.
